Reference: article PMC3098952 (Bioorganic & medicinal chemistry letters, 2011)

Tests used:
EcMetAP = settings: read-out: Reported affinity of metal for EcMetAP; ref [30], [31]; cited from earlier work
AbMetAPy = AbMetAPy (Acinetobacter baumannii, UniProt V5VCW7); assay: Activation of and metal binding to AbMetAPy by divalent metal ions; type: biochemical, Acinetobacter baumannii ATCC 17978; settings: Met-AMC fluorescence assay, enzyme 1 µM
AbMetAPx = AbMetAPx (Acinetobacter baumannii, UniProt A0A7U4DGZ4); assay: Activation of and metal binding to AbMetAPx by divalent metal ions; type: biochemical, Acinetobacter baumannii ATCC 17978; settings: Met-AMC fluorescence assay, enzyme 1 µM

Row | SMILES | Kd (EcMetAP) | Activation of AbMetAPy by metal ion (AbMetAPy) | Activation of AbMetAPx by metal ion (AbMetAPx)
1 | [Co+2] [Co(II)] | 300 nM | – | –
2 | [Fe+2] [Fe(II)] | 200 nM | – | –
3 | [Mn+2] [Mn(II)] | 6000 nM | – | –
4 | [Zn+2] [Zn (II)] | – | no activation | no activation
